The source of these data is patent US11098059B2, “PRMT5 inhibitors” (Merck Sharp & Dohme Corp., priority 2017, dated 2021).

The target in experiment [1] is Full-length (FL)-PRMT5-MEP50 enzyme complex (Homo sapiens (Human), UniProt O14744). Nature of the experiment: PRMT5-MEP50 Enzyme Methylation Assay. As to Enzyme Methylation Assay IC50 1: top concentration 100000 nM. The format is biochemical. As for the experimental part: PRMT5-MEP50 Enzyme Methylation Assay
PRMT5/MEP50 biochemical assay is a direct measurement of the methylation activity of the enzyme complex on a short peptide substrate derived from the N-terminus of H4 histone. The methylation experiment is performed with recombinant protein. The assessment of inhibitory effect (IC50) of small molecules is measured by the effectiveness of the compounds to inhibit this reaction.
To each well of a white ProxiPlus 384 well-plate, 100 nL of compound (1% DMSO in final assay volume of 10 μL) was dispensed, followed by the addition of 8 μL of 1× assay buffer (50 mM Bicine pH 8.0, 1 mM DTT, 0.004% Tween20, 0.01% BSA) containing 0.5 nM of Full-length (FL)-PRMT5-MEP50 enzyme complex (recombinant proteins from baculovirus-transfected Sf21 cells: FL-PRMT5; MW=[…] and FL-MEP50; MW=38614). Plates were sealed and placed in a 37° C. humidified chamber for 30 minutes pre-incubation with compounds. Subsequently, each reaction was initiated by the addition of 2 μL 1× assay buffer containing 75 nM biotinylated H4R3(Me1) peptide, and 15 μM S-(5′-Adenosyl)-L-Methionine Chloride (SAM). The final reaction in each well of 10 μL consists of 0.5 nM PRMT5-MEP50, 75 nM biotinylated-peptide, and 15 μM SAM. Methylation reactions were allowed to proceed for 150 minutes in a sealed plate at 37° C. Reactions were immediately quenched by the addition of 1 μL of 10% formic acid. Plates were then frozen and shipped to SAMDI™ Tech Inc. to determine the percent conversion from […]. IC50 values were determined by 7 parameters biphasic fit model plotting the percent product conversion vs. (Log10) compound concentrations.

Another experiment addresses PRMT5 (Homo sapiens (Human), UniProt O14744). In words: PRMT5 Cell Target Engagement (TE) Assay. The format is cell-based. The conditions noted are these: treated 3 days, nuclear SDMA by high content imaging, top concentration 10000 nM. The source says:
PRMT5 Cell Target Engagement (TE) Assay
The PRMT5 TE assay is a biomarker assay for identifying compounds that inhibit symmetric dimethylation of arginine (SDMA) of PRMT5 substrates. This assay detects symmetrically dimethylated nuclear proteins using high content imaging technology. Detection of the expression of symmetrically dimethylated nucleo proteins is through a mixture of primary rabbit monoclonal antibodies to SDMA (CST 13222), which in turn recognized by an Alexafluor 488 dye-conjugated anti-rabbit IgG secondary antibody. The IN Cell Analyzer 2200 measures nuclear Alexafluor 488 fluorescent dye intensity that is directly related to the level of expression of symmetrically dimethylated nuclear proteins at the single cell level. Nuclear AF488 dye intensities are compared to the mean value for DMSO treated cells […] to report percent of inhibition for each compound-treated well.
Each well of a BD falcon collagen coated black/clear bottom 384-well plate was seeded with 4000 MCF-7 cells and allowed to attach for 5 hours. Media from cell plate was removed at 0.5 mm above the bottom of the plate and replaced with 30 μL of fresh media containing 1.2× compounds in 0.1% DMSO. Cells were treated for 3 days in 37° C. CO2 incubator. On day 3, cells were fixed with Cytofix, permeablized with 0.4% Triton-X-100/Cytofix, and washed with D-PBS without Ca/Mg. Cells were blocked with Licor Odessey blocking reagent for one hour at room temperature, followed by incubation with anti-SDMA (1:1000) antibody at 4° C. overnight. 1 antibody was removed, followed by three washings with DPBS without Ca/Mg and 0.05% Tween20. Hoechst (5 μg/ml), Cell Mask deep stain (1:2000) and Alexa488-conjugated goat anti-rabbit IgG (2 μg/mL) was added for 1 hour at room temperature. A final washing step (three washes) was performed before sealing plate for imaging on In Cell Analyzer 2200. Images from analyzer were uploaded to Columbus (at WP) for image analysis. IC50 values were determined by 4 parameters robust fit of percent fluorescence units vs. (Log10) compound concentrations.

Setting [2] is: read-out: Enzyme Methylation Assay IC50_1.
Setting [3] is: read-out: Enzyme Methylation Assay IC50_2.
Setting [4] is: MCF-7 cells, read-out: TE Assay EC50.

Read-outs that look alike come from different tables or passages of the source.

PRMT5, sequence (O14744 whole entry): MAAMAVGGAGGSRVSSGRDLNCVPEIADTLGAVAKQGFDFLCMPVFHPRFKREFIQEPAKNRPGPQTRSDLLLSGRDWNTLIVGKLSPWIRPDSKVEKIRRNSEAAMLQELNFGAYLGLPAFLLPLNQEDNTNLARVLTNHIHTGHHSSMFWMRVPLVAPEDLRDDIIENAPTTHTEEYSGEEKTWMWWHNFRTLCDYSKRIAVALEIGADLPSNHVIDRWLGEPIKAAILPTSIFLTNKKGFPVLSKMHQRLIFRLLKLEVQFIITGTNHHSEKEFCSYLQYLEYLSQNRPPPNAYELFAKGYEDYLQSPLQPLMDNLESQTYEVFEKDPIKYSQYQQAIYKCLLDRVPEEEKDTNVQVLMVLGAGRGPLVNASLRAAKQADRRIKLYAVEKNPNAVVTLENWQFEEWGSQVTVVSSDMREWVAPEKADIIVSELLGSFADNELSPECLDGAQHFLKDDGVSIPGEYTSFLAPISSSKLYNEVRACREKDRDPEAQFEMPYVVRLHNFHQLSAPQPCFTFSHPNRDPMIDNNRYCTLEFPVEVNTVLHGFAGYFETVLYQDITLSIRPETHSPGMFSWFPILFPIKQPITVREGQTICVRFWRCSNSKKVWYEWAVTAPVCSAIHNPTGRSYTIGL
PRMT5, sequence (Q9BQA1 whole entry partner): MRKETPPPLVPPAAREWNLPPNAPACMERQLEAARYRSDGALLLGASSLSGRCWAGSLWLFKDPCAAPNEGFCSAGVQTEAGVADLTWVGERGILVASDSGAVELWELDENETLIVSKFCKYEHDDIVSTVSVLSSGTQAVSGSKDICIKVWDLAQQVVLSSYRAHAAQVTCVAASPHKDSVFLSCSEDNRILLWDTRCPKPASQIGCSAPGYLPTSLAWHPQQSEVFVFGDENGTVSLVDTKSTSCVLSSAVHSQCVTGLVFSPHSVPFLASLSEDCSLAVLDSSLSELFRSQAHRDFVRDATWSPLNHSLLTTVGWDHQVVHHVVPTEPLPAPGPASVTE
Full-length (FL)-PRMT5-MEP50 enzyme complex, sequence (O14744 whole entry): as the sequence (O14744 whole entry) above
Full-length (FL)-PRMT5-MEP50 enzyme complex, sequence (Q9BQA1 whole entry partner): as the sequence (Q9BQA1 whole entry partner) above

Regarding `CC1(C)CN(C[C@H](O)[C@@H]2Cc3ccccc3CN2)C(=O)c2ccc(C(=O)N3[C@@H]4CC[C@H]3C[C@@H](O)C4)cc21` [Example 22, 2-((S)-2-hydroxy-2-((S)-1,2,3,4-tetrahydroisoquinolin-3-yl)ethyl)-6-((1R,3S,5S)-3-hydroxy-8-azabicyclo[3.2.1]octane-8-carbonyl)-4,4-dimethyl-3,4-dihydroisoquinolin-1(2H)-one], the IC50 in experiment [1] (setting [2]) was found to be 50.1 nM; in experiment [1] (setting [3]), 15300 nM. At PRMT5 (setting [4]), the EC50 came to 5280 nM.

For the compound `CO[C@H]1C[C@H]2CC[C@@H](C1)N2C(=O)c1ccc2c(c1)C(C)(C)CN(C[C@@H](O)[C@@H]1Cc3ccccc3CN1)C2=O` [Example 23, 2-((R)-2-hydroxy-2-((S)-1,2,3,4-tetrahydroisoquinolin-3-yl)ethyl)-6-((1R,3R,5S)-3-methoxy-8-azabicyclo[3.2.1]octane-8-carbonyl)-4,4-dimethyl-3,4-dihydroisoquinolin-1(2H)-one], the results for the IC50 in experiment [1] (setting [2]) and in experiment [1] (setting [3]) were 0.5 nM and 97.7 nM, respectively. In addition, the half-maximal effective concentration (EC50) on PRMT5 (TE Assay EC50, MCF-7 cells) was 2.14 nM.

As to `CO[C@H]1C[C@H]2CC[C@@H](C1)N2C(=O)c1ccc2c(c1)C(C)(C)CN(C[C@H](O)[C@@H]1Cc3ccccc3CN1)C2=O` [Example 24, 2-((S)-2-hydroxy-2-((S)-1,2,3,4-tetrahydroisoquinolin-3-yl)ethyl)-6-((1R,3S,5S)-3-methoxy-8-azabicyclo[3.2.1]octane-8-carbonyl)-4,4-dimethyl-3,4-dihydroisoquinolin-1(2H)-one], the IC50 in experiment [1] (setting [2]) worked out at 11.3 nM; in experiment [1] (setting [3]), 7500 nM. The EC50 at PRMT5 (setting [4]) is 2640 nM.

In the case of `CO[C@@H]1C[C@H]2CC[C@@H](C1)N2C(=O)c1ccc2c(c1)C(C)(C)CN(C[C@@H](O)[C@@H]1Cc3ccccc3CN1)C2=O` [Example 25, 2-((R)-2-hydroxy-2-((S)-1,2,3,4-tetrahydroisoquinolin-3-yl)ethyl)-6-((1R,3S,5S)-3-methoxy-8-azabicyclo[3.2.1]octane-8-carbonyl)-4,4-dimethyl-3,4-dihydroisoquinolin-1(2H)-one], the IC50 in experiment [1] (setting [2]) was 0.44 nM; in experiment [1] (setting [3]), 50.1 nM. This compound gave an EC50 at PRMT5 (TE Assay EC50, MCF-7 cells) of 3.81 nM.

In the case of `CO[C@@H]1C[C@H]2CC[C@@H](C1)N2C(=O)c1ccc2c(c1)C(C)(C)CN(C[C@H](O)[C@@H]1Cc3ccccc3CN1)C2=O` [Example 26, 2-((S)-2-hydroxy-2-((S)-1,2,3,4-tetrahydroisoquinolin-3-yl)ethyl)-6-((1R,3R,5S)-3-methoxy-8-azabicyclo[3.2.1]octane-8-carbonyl)-4,4-dimethyl-3,4-dihydroisoquinolin-1(2H)-one], the IC50 in experiment [1] (setting [2]) was 24.3 nM; in experiment [1] (setting [3]) it was 14600 nM. In addition, at PRMT5 (setting [4]), the concentration giving a half-maximal response (EC50) is 4630 nM.

On to `CC1(C)CN(C[C@@H](O)[C@@H]2Cc3ccccc3CN2)C(=O)c2ccc(C(=O)N3C4COC5C4OCC53)cc21` [Example 27, 6-(hexahydro-3,6-epiminofuro[3,2-b]furan-7-carbonyl)-2-((R)-2-hydroxy-2-((S)-1,2,3,4-tetrahydroisoquinolin-3-yl)ethyl)-4,4-dimethyl-3,4-dihydroisoquinolin-1(2H)-one], for which the IC50 in experiment [1] (setting [2]) turned out to be 0.35 nM; in experiment [1] (setting [3]), 115 nM. Also, the 50% effective concentration (EC50) at PRMT5 (setting [4]) was 18.6 nM.

Take `CC1(C)CN(C[C@H](O)[C@@H]2Cc3ccccc3CN2)C(=O)c2ccc(C(=O)N3C4COC5C4OCC53)cc21` [Example 28, 6-(hexahydro-3,6-epiminofuro[3,2-b]furan-7-carbonyl)-2-((S)-2-hydroxy-2-((S)-1,2,3,4-tetrahydroisoquinolin-3-yl)ethyl)-4,4-dimethyl-3,4-dihydroisoquinolin-1(2H)-one]: the values for the IC50 in experiment [1] (setting [2]) and in experiment [1] (setting [3]) were 34.3 nM and 34300 nM, respectively. Further, the concentration giving a half-maximal response (EC50) at PRMT5 (setting [4]) was at least 10000 nM.

For the compound `CC1(C)CN(C[C@@H](O)[C@@H]2Cc3ccccc3CN2)C(=O)c2ccc(N3C(=O)C4CCC3CC4)cc21` [Example 29, 2-{(2R)-2-hydroxy-2-[(3S)-1,2,3,4-tetrahydroisoquinolin-3-yl]ethyl}-4,4-dimethyl-6-(3-oxo-2-azabicyclo[2.2.2]octan-2-yl)-3,4-dihydroisoquinolin-1(2H)-one], the IC50 in experiment [1] (setting [2]) amounted to 0.84 nM; in experiment [1] (setting [3]) it was 359 nM. Also, on PRMT5 (setting [4]), the 50% effective concentration (EC50) was determined as 74.4 nM.

Turning to `O=C1c2ccc(C(=O)N3C4CCC3COC4)cc2CCN1CC(O)[C@@H]1Cc2ccccc2CN1` (stereo partly drawn) [Example 30, 2-{2-hydroxy-2-[(3S)-1,2,3,4-tetrahydroisoquinolin-3-yl]ethyl}-6-(3-oxa-8-azabicyclo[3.2.1]oct-8-ylcarbonyl)-3,4-dihydroisoquinolin-1(2H)-one], the results for the IC50 in experiment [1] (setting [2]) and in experiment [1] (setting [3]) were 16.6 nM and 6280 nM, respectively. The 50% effective concentration (EC50) at PRMT5 (setting [4]) came to 869 nM.

For orientation: EC50 means the concentration that produces a half-maximal response.
